The source made the active and inactive calls. No cut-off for these calls is given here.
Assays:
[1] = molecular target: Protein arginine N-methyltransferase 6 (Homo sapiens, UniProt Q96LA8); test: Inhibition of human PRMT6 using GST-GAR as substrate and SAM as cofactor at 10 uM by radiometric HotSpot assay relative to control
[2] = molecular target: Protein arginine N-methyltransferase 1 (Homo sapiens, UniProt Q99873); test: Inhibition of human PRMT1 using H4-21peptide as substrate at 10 uM incubated for 10 mins by fluorescence based analysis relative to control
Sequence of Protein arginine N-methyltransferase 1 (Q99873 whole entry, looked up): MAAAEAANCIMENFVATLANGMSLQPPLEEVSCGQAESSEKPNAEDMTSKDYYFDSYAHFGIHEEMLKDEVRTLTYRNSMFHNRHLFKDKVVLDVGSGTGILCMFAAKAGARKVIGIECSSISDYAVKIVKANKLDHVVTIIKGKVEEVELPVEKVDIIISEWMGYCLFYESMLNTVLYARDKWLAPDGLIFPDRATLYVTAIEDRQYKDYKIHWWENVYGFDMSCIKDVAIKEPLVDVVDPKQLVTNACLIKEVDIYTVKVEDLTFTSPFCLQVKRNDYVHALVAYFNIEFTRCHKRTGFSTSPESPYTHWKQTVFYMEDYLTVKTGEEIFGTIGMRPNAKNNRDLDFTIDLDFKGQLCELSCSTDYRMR

[3] = molecular target: Protein arginine N-methyltransferase 3 (Homo sapiens, UniProt O60678); test: Inhibition of human PRMT3 using H4-21peptide as substrate at 10 uM incubated for 10 mins by fluorescence based analysis relative to control
Sequence of Protein arginine N-methyltransferase 3 (O60678 2-531 limits assumed): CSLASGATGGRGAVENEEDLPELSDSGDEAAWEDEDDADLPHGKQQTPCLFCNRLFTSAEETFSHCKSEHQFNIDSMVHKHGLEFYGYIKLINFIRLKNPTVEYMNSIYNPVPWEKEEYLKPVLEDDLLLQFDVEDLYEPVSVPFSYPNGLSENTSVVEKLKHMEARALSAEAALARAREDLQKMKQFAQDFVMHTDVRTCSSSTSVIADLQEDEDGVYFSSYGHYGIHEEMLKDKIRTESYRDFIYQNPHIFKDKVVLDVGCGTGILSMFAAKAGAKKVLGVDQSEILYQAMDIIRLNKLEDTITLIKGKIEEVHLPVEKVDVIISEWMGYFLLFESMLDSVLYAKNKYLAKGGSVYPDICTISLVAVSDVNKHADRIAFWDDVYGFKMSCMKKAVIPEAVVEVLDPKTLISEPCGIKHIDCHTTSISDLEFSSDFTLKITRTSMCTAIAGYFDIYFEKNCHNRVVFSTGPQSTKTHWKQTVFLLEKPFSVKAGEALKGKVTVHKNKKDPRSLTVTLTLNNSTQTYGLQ

[4] = molecular target: Protein arginine N-methyltransferase 8 (Homo sapiens, UniProt Q9NR22); test: Inhibition of human PRMT8 using Histone H4 as substrate and SAM as cofactor at 10 uM by radiometric HotSpot assay relative to control
Sequence of Protein arginine N-methyltransferase 8 (Q9NR22 2-394 limits assumed): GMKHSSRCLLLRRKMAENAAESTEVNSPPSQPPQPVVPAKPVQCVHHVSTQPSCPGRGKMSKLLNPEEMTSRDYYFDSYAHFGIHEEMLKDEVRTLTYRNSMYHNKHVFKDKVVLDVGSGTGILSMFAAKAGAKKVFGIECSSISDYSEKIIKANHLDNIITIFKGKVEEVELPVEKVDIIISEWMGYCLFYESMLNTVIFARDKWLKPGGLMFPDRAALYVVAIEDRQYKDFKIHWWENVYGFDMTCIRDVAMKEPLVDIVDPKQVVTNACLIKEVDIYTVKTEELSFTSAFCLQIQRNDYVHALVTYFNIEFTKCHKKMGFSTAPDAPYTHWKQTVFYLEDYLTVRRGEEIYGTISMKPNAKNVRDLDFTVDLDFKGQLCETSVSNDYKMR

[5] = molecular target: T1, Histone-arginine methyltransferase CARM1 (Homo sapiens) (UniProt Q86X55); test: Inhibition of human PRMT4 using histone H3 as substrate and SAM as cofactor at 10 uM by radiometric HotSpot assay relative to control
T1 sequence (whole entry): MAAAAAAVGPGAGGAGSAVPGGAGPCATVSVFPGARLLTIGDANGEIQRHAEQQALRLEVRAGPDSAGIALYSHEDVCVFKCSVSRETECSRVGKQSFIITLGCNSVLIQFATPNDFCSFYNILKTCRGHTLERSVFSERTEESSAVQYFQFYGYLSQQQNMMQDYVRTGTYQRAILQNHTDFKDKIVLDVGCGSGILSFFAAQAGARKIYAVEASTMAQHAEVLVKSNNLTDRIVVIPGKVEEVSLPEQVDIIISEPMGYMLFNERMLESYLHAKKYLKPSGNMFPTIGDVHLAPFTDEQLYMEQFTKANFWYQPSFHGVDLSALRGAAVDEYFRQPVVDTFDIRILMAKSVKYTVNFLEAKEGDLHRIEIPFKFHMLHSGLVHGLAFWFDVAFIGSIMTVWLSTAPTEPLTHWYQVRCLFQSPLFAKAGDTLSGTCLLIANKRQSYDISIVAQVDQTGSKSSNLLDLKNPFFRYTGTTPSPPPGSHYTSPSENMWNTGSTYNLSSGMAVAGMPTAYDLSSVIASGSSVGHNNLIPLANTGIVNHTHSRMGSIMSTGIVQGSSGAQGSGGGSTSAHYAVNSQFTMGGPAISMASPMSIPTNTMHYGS

Sequence of Protein arginine N-methyltransferase 6 (Q96LA8 whole entry, looked up): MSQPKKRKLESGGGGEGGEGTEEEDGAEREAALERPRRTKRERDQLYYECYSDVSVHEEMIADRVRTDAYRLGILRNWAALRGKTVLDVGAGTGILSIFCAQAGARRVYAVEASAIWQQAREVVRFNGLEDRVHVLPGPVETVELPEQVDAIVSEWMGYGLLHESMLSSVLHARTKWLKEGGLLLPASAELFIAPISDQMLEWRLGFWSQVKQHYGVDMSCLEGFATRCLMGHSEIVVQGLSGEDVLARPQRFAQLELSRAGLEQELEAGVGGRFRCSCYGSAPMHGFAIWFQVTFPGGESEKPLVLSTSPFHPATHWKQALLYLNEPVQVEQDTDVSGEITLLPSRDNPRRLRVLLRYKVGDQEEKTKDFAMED

inhibition [1] [%]	inhibition [2]	inhibition [3] [%]	inhibition [4] [%]	inhibition [5] [%]	SMILES
50	–	< 30	> 50	> 90	Nc1ncnc2c1ncn2[C@@H]1O[C@H](CSCCCNCc2cccc(-c3ccc(O)cc3)c2)[C@@H](O)[C@H]1O
50	–	< 30	> 50	> 90	Nc1ncnc2c1ncn2[C@@H]1O[C@H](CSCCNCc2cccc(-c3cccc(O)c3)c2)[C@@H](O)[C@H]1O
50	–	< 30	> 50	> 90	Nc1ncnc2c1ncn2[C@@H]1O[C@H](CSCCCNCc2cccc(-c3cccc4cn[nH]c34)c2)[C@@H](O)[C@H]1O
50	–	< 30	> 50	> 90	Nc1ncnc2c1ncn2[C@@H]1O[C@H](CSCCCNCc2cccc(-c3ccc(C(F)(F)F)cc3)c2)[C@@H](O)[C@H]1O
50	–	< 30	> 50	> 90	Nc1ncnc2c1ncn2[C@@H]1O[C@H](CSCCNCc2cccc(-c3ccccc3O)c2)[C@@H](O)[C@H]1O
50	–	< 30	> 50	> 90	Nc1ncnc2c1ncn2[C@@H]1O[C@H](CSCCCNCc2cccc(-c3cccc(F)c3)c2)[C@@H](O)[C@H]1O
50	–	< 30	> 50	> 90	Nc1ncnc2c1ncn2[C@@H]1O[C@H](CSCCNCc2cccc(-c3cccc(F)c3)c2)[C@@H](O)[C@H]1O
50	–	< 30	> 50	> 90	Nc1cccc(-c2cccc(CNCCSC[C@H]3O[C@@H](n4cnc5c(N)ncnc54)[C@H](O)[C@@H]3O)c2)c1
50	–	< 30	> 50	> 90	Nc1ncnc2c1ncn2[C@@H]1O[C@H](CSCCNCc2cccc(-c3cccc4cn[nH]c34)c2)[C@@H](O)[C@H]1O
50	–	< 30	> 50	> 90	Nc1ncnc2c1ncn2[C@@H]1O[C@H](CSCCNCc2cccc(-c3ccc(C(F)(F)F)cc3)c2)[C@@H](O)[C@H]1O
50	–	< 30	> 50	> 90	Nc1ncnc2c1ncn2[C@@H]1O[C@H](CSCCCNCc2cccc(-c3ccc(F)c(O)c3)c2)[C@@H](O)[C@H]1O
< 50	inactive	< 30	< 50	–	Nc1ncnc2c1ncn2[C@@H]1O[C@H](CSCCOc2ccc(-c3cccc(O)c3)cc2)[C@@H](O)[C@H]1O
50	–	< 30	> 50	> 90	Nc1ncnc2c1ncn2[C@@H]1O[C@H](CSCCNCc2cccc(-c3ccc(O)cc3)c2)[C@@H](O)[C@H]1O
50	–	< 30	> 50	> 90	Nc1ncnc2c1ncn2[C@@H]1O[C@H](CSCCCNCc2cccc(-c3ccc(Cl)cc3)c2)[C@@H](O)[C@H]1O
> 90	> 50%	–	> 95	> 90	N=C(NCCCSC[C@H]1O[C@@H](n2cnc3c(N)ncnc32)[C@H](O)[C@@H]1O)Nc1cccc(-c2ccc(F)c(O)c2)c1
50	–	< 30	> 50	> 90	Nc1ncnc2c1ncn2[C@@H]1O[C@H](CSCCNCc2cccc(-c3ccncc3)c2)[C@@H](O)[C@H]1O
50	–	< 30	> 50	> 90	Nc1ncnc2c1ncn2[C@@H]1O[C@H](CSCCNCc2cccc(-c3ccc(Cl)cc3)c2)[C@@H](O)[C@H]1O
> 90	> 50%	–	> 95	> 90	N=C(NCCSC[C@H]1O[C@@H](n2cnc3c(N)ncnc32)[C@H](O)[C@@H]1O)Nc1cccc(-c2ccc(C(F)(F)F)cc2)c1
50	–	< 30	> 50	> 90	Nc1ncnc2c1ncn2[C@@H]1O[C@H](CSCCCNCc2cccc(-c3ccoc3)c2)[C@@H](O)[C@H]1O
> 90	> 50%	–	> 95	> 90	N=C(NCCSC[C@H]1O[C@@H](n2cnc3c(N)ncnc32)[C@H](O)[C@@H]1O)Nc1cccc(-c2ccc(Cl)cc2)c1
50	–	< 30	> 50	> 90	Nc1ncnc2c1ncn2[C@@H]1O[C@H](CSCCNCc2cccc(-c3ccc(F)c(O)c3)c2)[C@@H](O)[C@H]1O
< 50	inactive	< 30	< 50	–	Nc1ncnc2c1ncn2[C@@H]1O[C@H](CSCCOc2ccc(-c3ccc(O)cc3)cc2)[C@@H](O)[C@H]1O

Continued, compound first:

SMILES	inhibition [1] [%]	inhibition [2]	inhibition [3] [%]	inhibition [4] [%]	inhibition [5] [%]
Nc1ccc(-c2ccc(CNC(=O)NCCSC[C@H]3O[C@@H](n4cnc5c(N)ncnc54)[C@H](O)[C@@H]3O)cc2)cc1	70	< 50%	3	< 30	27
Nc1ncnc2c1ncn2[C@@H]1O[C@H](CSCCOc2ccc(-c3ccc(F)c(O)c3)cc2)[C@@H](O)[C@H]1O	< 50	inactive	< 30	< 50	–
Nc1ncnc2c1ncn2[C@@H]1O[C@H](CSCCNC(=O)NCc2ccccc2)[C@@H](O)[C@H]1O	70	< 50%	> 50	< 30	> 90
Nc1ncnc2c1ncn2[C@@H]1O[C@H](CSCCOc2ccc(-c3ccncc3)cc2)[C@@H](O)[C@H]1O	< 50	inactive	< 30	< 50	–
COc1cc2nc(-c3ccc(O)cc3)nc(NCCSC[C@H]3O[C@@H](n4cnc5c(N)ncnc54)[C@H](O)[C@@H]3O)c2cc1OC	> 70	inactive	< 30	< 50	–
Nc1ncnc2c1ncn2[C@@H]1O[C@H](CSCCOc2ccc(-c3cncnc3)cc2)[C@@H](O)[C@H]1O	< 50	inactive	< 30	< 50	–
Nc1ncnc2c1ncn2[C@@H]1O[C@H](CSCCOc2ccc(-c3ccc(F)cc3)cc2)[C@@H](O)[C@H]1O	< 50	inactive	< 30	< 50	–
N=C(NCCCSC[C@H]1O[C@@H](n2cnc3c(N)ncnc32)[C@H](O)[C@@H]1O)Nc1cccc(-c2ccoc2)c1	> 90	> 50%	–	> 95	> 90
N=C(NCCCSC[C@H]1O[C@@H](n2cnc3c(N)ncnc32)[C@H](O)[C@@H]1O)Nc1cccc(-c2n[nH]cc2C(F)(F)F)c1	> 90	> 50%	–	> 95	> 90
COc1cc2nc(-c3ccc(Cl)cc3)nc(NCCSC[C@H]3O[C@@H](n4cnc5c(N)ncnc54)[C@H](O)[C@@H]3O)c2cc1OC	> 70	inactive	< 30	< 50	–
N=C(NCCCSC[C@H]1O[C@@H](n2cnc3c(N)ncnc32)[C@H](O)[C@@H]1O)Nc1cccc(-c2cccnc2)c1	> 90	> 50%	–	> 95	> 90
N=C(NCCCSC[C@H]1O[C@@H](n2cnc3c(N)ncnc32)[C@H](O)[C@@H]1O)Nc1cccc(-c2cccc([N+](=O)[O-])c2)c1	> 90	> 50%	–	> 95	> 90
N=C(NCCSC[C@H]1O[C@@H](n2cnc3c(N)ncnc32)[C@H](O)[C@@H]1O)Nc1cccc(-c2cccc(F)c2)c1	> 90	> 50%	–	> 95	> 90
Nc1ncnc2c1ncn2[C@@H]1O[C@H](CSCCOc2ccc(-c3ccccc3O)cc2)[C@@H](O)[C@H]1O	< 50	inactive	< 30	< 50	–
Nc1ncnc2c1ncn2[C@@H]1O[C@H](CSCCOc2ccc(-c3ccc(Cl)cc3)cc2)[C@@H](O)[C@H]1O	< 50	inactive	< 30	< 50	–
N=C(NCCCSC[C@H]1O[C@@H](n2cnc3c(N)ncnc32)[C@H](O)[C@@H]1O)NCc1ccccc1	> 90	> 50%	–	> 95	> 90
